Measured values: patent publication US7671057B2, “Therapeutic agent for type II diabetes comprising protease-inhibiting compound” (Ono Pharmaceutical Co., Ltd., priority 2004, dated 2010)
Marks after values point to notes of the source that are not given here.

Key:
Assay type in all cases: in vivo, mouse
[1] = Body weight after repeated administration for 14 days (Example 1); conditions: after repeated administration for 14 consecutive days
Experimental: Following the above-described single administration, the repeated, once-a-day forced oral administration of each compound was performed at the same daily dose for the total period of 14 consecutive days. […] The blood-sugar, TC, TG, IRI and IRG levels and the body weight were expressed as a mean value±standard deviation as calculated for each group of animals. With reference to the significance test between the group treated through administration of the medium and each group treated through administration of the compound, the F test was effected to analyze the data and then, the Student's t-test and Aspin-Welch's t-test were used in cases where the variance between the two groups was determined to be equal and unequal, respectively.

KK-A^y/Ta Jcl mice [2] = test: Glucose loading test after repeated administration for 14 days (Example 1)
Experimental: (§1) As from Day 14 afterwards, the animals after being fasted for 18 hours or more were loaded orally with a glucose solution (2 g/kg, 10 mL/kg), whereby the blood-sugar levels were measured before, and 120 min. after, the said glucose loading. Each of the compounds was given orally to the animals 3 hours prior to the glucose loading, and the whole blood was drawn from each of the animals under anesthesia. Each of the said blood samples was centrifuged to yield a blood plasma, and the resultant blood plasmas were all preserved under freezing in a ultra-low-temperature freezer for subsequent use in the below-described measurements.
(§2) The blood-sugar level, total cholesterol level (hereinafter referred to briefly as “TC level”) and triglyceride level (hereinafter referred to briefly as “TG level”) were detected individually in accordance with the hexokinase/G-6-PDH method, enzyme method and GPO/HDAOS method, and measured with use of Biochemical Auto-Analyzer (Model AU 400, manufactured by Olympus Co. of Japan). The plasma insulin level (hereinafter referred to briefly as “IRI level”) and the plasma glucagon level (hereinafter referred to briefly as “IRG level”) were detected individually with the ELISA method (Lebisinsulin Mouse Insulin Kit, produced by K.K. Shibayagi of Japan) and the ELISA method (YK090 Glucagon EIA Kit, produced by K.K. Yanaihara Kenkyuu-sho of Japan), followed by measurement with use of a plate reader (Immuno Mini NJ-2300, Nalge Nunc International K.K. of Japan).
(§3) The blood-sugar, TC, TG, IRI and IRG levels and the body weight were expressed as a mean value±standard deviation as calculated for each group of animals. With reference to the significance test between the group treated through administration of the medium and each group treated through administration of the compound, the F test was effected to analyze the data and then, the Student's t-test and Aspin-Welch's t-test were used in cases where the variance between the two groups was determined to be equal and unequal, respectively. Referring to the significance level, less than 5% (p<0.05) was considered significant, and the significance level was expressed as divided into the two events of less than 1% (**: p<0.01) and less than 5% (*: p<0.05).

KK-A^y/Ta Jcl mice [3] = test: Plasma TC, TG, blood-sugar, IRI and IRG levels 3 hours subsequent to the glucose-loading test (Example 1); conditions: 3 hours subsequent to glucose-loading test
Experimental: as §1, §2, §3

KK-A^y/Ta Jcl mice [4] = test: Blood-sugar level after single and repeated oral administration (Example 1)
Experimental: On the day of initiation of administration (Day 1 of Administration), the obese/spontaneously type II diabetic mice; KK-A^y/Ta Jcl mice (male, 6-weeks aged, n=8) were treated through individual oral administration of the Test Compound 1 (ethyl N-allyl-N—[(E)-2-methyl-3-[4-(4-amidinophenoxycarbonyl)-phenyl]propenoyl]aminoacetate/methanesulfonate) of the present invention and the Control Compound 1 (5-{4-[2-(5-ethylpyridine-2-yl)ethoxy]benzyl}-1,3-thiazolidine-2,4-dione; pioglitazone) at the daily dose of 30 mg/kg, or the control medium (0.5% CMC), and blood was drawn from each animal through the orbital venous plexus 6 hours after administration. The blood-sugar levels were measured in accordance with the enzyme electrode method by use of Antosense II (manufactured by Daikin Kogyo KK of Japan). The said test was carried out while the animals were allowed free access to food and water.
Following the above-described single administration, the repeated, once-a-day forced oral administration of each compound was performed at the same daily dose for the total period of 14 consecutive days. On Days 3 and 11, blood was drawn in the same manner as described above 6 hours after administration of each compound, followed by measurement of the blood-sugar level.
as §3

[5] = repeated once-a-day oral 30 mg/kg, 6 hours after administration

C=CCN(CC(=O)OCC)C(=O)/C(C)=C/c1ccc(C(=O)Oc2ccc(C(=N)N)cc2)cc1 [Test Compound 1, ethyl N-allyl-N—[(E)-2-methyl-3-[4-(4-amidinophenoxycarbonyl)-phenyl]propenoyl]aminoacetate/methanesulfonate]
Effect on mouse body-weight vs control medium group (in words) [1]: did not show any changes in the mouse body-weight
Body weight ([1]; 30 mg/kg p.o.): 29.3 ± 0.3 g
Blood-sugar level before glucose loading (KK-A^y/Ta Jcl mice [2]; after 14 days 30 mg/kg p.o., fasted, compound 3 hours prior to loading): 155.0 ± 5.2 mg/dL
Blood-sugar level 120 Min. after glucose loading (KK-A^y/Ta Jcl mice [2]; after 14 days 30 mg/kg p.o., glucose 2 g/kg orally): 235.0 ± 5.9* mg/dL
Blood-sugar lowering action in the glucose loading test vs medium control group (in words) (KK-A^y/Ta Jcl mice [2]; after repeated administration for 14 consecutive days): significant blood-sugar lowering action
Effect on impaired glucose tolerance (in words) (KK-A^y/Ta Jcl mice [2]; repeated forced oral administration, spontaneously diabetic mice): ameliorated impaired glucose tolerance
Effect on IRG level (in words) (KK-A^y/Ta Jcl mice [3]; after 14 days): a decrease in the IRG level
Effect on IRI level (in words) (KK-A^y/Ta Jcl mice [3]; after 14 days): an increase in the IRI level
Effect on TC level (in words) (KK-A^y/Ta Jcl mice [3]; after 14 days): decreases
Effect on TG level (in words) (KK-A^y/Ta Jcl mice [3]; after 14 days): decreases
Effect on blood-sugar level (in words) (KK-A^y/Ta Jcl mice [3]; after 14 days): a decrease in the blood-sugar level
Blood-sugar level (KK-A^y/Ta Jcl mice [3]; after 14 days 30 mg/kg p.o.): 251.0 ± 7.2 mg/dL
IRG (plasma glucagon level) (KK-A^y/Ta Jcl mice [3]; after 14 days 30 mg/kg p.o.): 411 ± 31.5 pg/mL
IRI (plasma insulin level) (KK-A^y/Ta Jcl mice [3]; after 14 days 30 mg/kg p.o.): 1.74 ± 0.17 ng/mL
TC (KK-A^y/Ta Jcl mice [3]; after 14 days 30 mg/kg p.o.): 99.2 ± 3.6 mg/dL
TG (KK-A^y/Ta Jcl mice [3]; after 14 days 30 mg/kg p.o.): 81.4 ± 7.1 mg/dL
Blood-sugar level before administration (KK-A^y/Ta Jcl mice [4]; Day 1, before single oral administration of 30 mg/kg (baseline)): 443.5 ± 19.6 mg/dL
Blood-sugar lowering action (in words) (KK-A^y/Ta Jcl mice [4]; repeated administration 30 mg/kg, Days 3 and 11): blood-sugar lowering action
Blood-sugar level Day 3 (KK-A^y/Ta Jcl mice [4]; [5]): 205.5 ± 7.0* mg/dL
Blood-sugar level Day 11 (KK-A^y/Ta Jcl mice [4]; [5]): 297.4 ± 18.4 mg/dL
Blood-sugar lowering action vs control medium group (in words) (KK-A^y/Ta Jcl mice [4]; single administration 30 mg/kg, 6 hours after administration): significant blood-sugar lowering action
Blood-sugar level 6 hrs. after administration (KK-A^y/Ta Jcl mice [4]; single oral administration, 30 mg/kg): 263.5 ± 11.0* mg/dL
